What was measured:
[1] = system: pure chytrid culture; assay: Chytrid tolerance: pure chytrid culture in well plate, observed under a microscope (Examples 13-14); type: cell-based; settings: 40 ppm
Protocol: Experiments were performed to determine chytrid tolerance to bleach, salt, Lufenuron (chemical biocide), and Rid Fungus (blend of natural organic herbs) for evaluation as a treatment for chytrids. A pure chytrid culture in a well plate was treated every 24 hours and observed under a microscope to determine the effect. An untreated culture was used as a control for comparison purposes. Qualitative assessments and quantitative estimates were made by visual observation under a microscope.
Several concentrations of salt and Rid Fungus (blend of organic herbs) were further investigated as a chytrid treatment, as in Example 13. A pure chytrid culture in a well plate was treated and visually observed under a microscope to determine the effect. An untreated culture was used as a control for comparison purposes.

[2] = system: chytrids; assay: Haematococcus red cyst cells infected with chytrids treated in well plates (Example 15); type: cell-based
Protocol: Several concentrations of bleach and Lufenuron were further investigated for their effectiveness as chytrid treatments for Haematococcus pluvialis during culturing. Cultures of Haematococcus pluvialis (Strain 1) red cyst cells infected with chytrids were treated in well plates (0.5 mL volume) with bleach or Lufenuron to evaluate the effect on the Haematococcus cells if bleach or Lufenuron were to be used as a contamination treatment. A first control culture of Haematococcus red cyst cells absent of chytrids and a second control culture of healthy Haematococcus red cyst cells inoculated with chytrids were used as comparisons for the treatments. The cultures were treated with bleach at or less than the tolerance level of Haematococcus: 0.01, 0.02 and 0.03 mL/L of 12.5% stock concentration bleach (calculated concentration 0.00125, 0.0025, and 0.00375 mL/L), or different concentrations of Lufenuron (0.01, 0.1 and 1% of culture volume). The cultures were observed under a microscope during the experiment to determine effectiveness.

[3] = system: chytrid zoospores and sporangia; settings: 1% dose of a solution comprising 50% NaOH; 25, 40, and 50° C
Protocol: A solution comprising 50% sodium hydroxide (NaOH) was evaluated as a treatment for chytrids that could be applied to empty reactors in order to clean them for subsequent batches. A pure culture of chytrid zoospores and sporangia was treated with a 1% dose of a solution comprising 50% NaOH at temperatures of 25, 40, and 50° C. The cultures were then observed under a microscope for a reduction in the chytrid zoospores or sporangia number, or a reduction in the integrity of the chytrid cells.

[4] = system: Haematococcus pluvialis (Strain 1)

## O=C(NC(=O)c1c(F)cccc1F)Nc1cc(Cl)c(OC(F)(F)C(F)C(F)(F)F)cc1Cl (stereo not drawn) [Lufenuron]
[1]; after 1 hour
  microscope observation of pure chytrid culture: swimming zoospores
[1]; after 24 hours
  microscope observation of pure chytrid culture: Swimming zoospores
[1]; after 48 hours and 72 hours
  microscope observation of pure chytrid culture: heavy bacteria with sporangia and zoospores
[2]; 0.01% of culture volume, after 24 and 48 hours
  microscope observation of infected red cyst culture: swimming zoospores and positive infection
[2]; 0.01% of culture volume, after 72 hours
  microscope observation of infected red cyst culture: Some swimming zoospores, Ochromonas (single-celled, motile, golden-brown alga), and active infection
[2]; 0.10% of culture volume, after 24 and 48 hours
  microscope observation of infected red cyst culture: dead sporangia, some infection, and active zoospores
[2]; 0.10% of culture volume, after 72 hours
  microscope observation of infected red cyst culture: Some swimming zoospores and active infection
[2]; 1.00% of culture volume, after 24 hours
  microscope observation of infected red cyst culture: dead sporangia and zoospores attached to cyst cells
[2]; 1.00% of culture volume, after 48 hours
  microscope observation of infected red cyst culture: Ochromonas, bacteria, dead sporangia, zoospores attached to cyst cells, and few swimming zoospores
[2]; 1.00% of culture volume, after 72 hours
  microscope observation of infected red cyst culture: Ochromonas, no active infection, and no zoospores

## [Na+].[OH-] [NaOH, sodium hydroxide]
[3]
  reduction in chytrid zoospores or sporangia number or integrity: not a reduction in chytrid zoospores or sporangia number or integrity

## bleach
[4]
  known tolerance of Haematococcus pluvialis (Strain 1): 0.00375 mL/L

Reference: patent US20160281050A1, “METHODS FOR TREATING A CULTURE OF HAEMATOCOCCUS PLUVIALIS FOR CONTAMINATION USING SALT AND HYDROGEN PEROXIDE” (HELIAE DEVELOPMENT LLC, priority 2015, published 2016)
